The text below walks through data of patent US20180251431A1 (VERTEX PHARMACEUTICALS INCORPORATED, priority 2016, published 2018).

The test system of this experiment is HEK293 cells. Description: HEK293 VLCFA-LPC IC50 determination (13C-labeled C26:0 LPC by UHPLC/MS). Particulars: Homo sapiens, HEK293, HEK293 cells; average of one or more replicates; read-out: Average HEK293 IC50. The experiment is classed as cell-based, human. The method in brief: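 Suspension HEK293 cells (final 0.5 million/mL after mixing with equal volume) incubated 48 hours with compound plus 13C-acetate (1.0 mg/mL in added media), shaking at 37° C. Lipids extracted with hexane/isopropanol or methanol, C13:0 LPC standard. UHPLC/MS of 13C-labeled C26:0 LPC (638.500/104.100 m/z); IC50 by four-parameter fit.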
As usually defined, the IC50 is the concentration that inhibits the measured activity by half. As to `O=C(Cc1ccccc1)Nc1ccn(-c2ccccc2F)n1` [Compound 185, N-[1-(2-fluorophenyl)pyrazol-3-yl]-2-phenyl-acetamide], the 50% inhibitory concentration (IC50) turned out to be 470 nM. Turning to `O=C(Nc1ccn(-c2ccccc2F)n1)C1(c2ccccc2F)CC1` [Compound 186, 1-(2-fluorophenyl)-N-(1-(2-fluorophenyl)-1H-pyrazol-3-yl)cyclopropane-1-carboxamide], the 50% inhibitory concentration (IC50) is 140 nM.

For the molecule `O=C(Cc1ccccc1F)Nc1ccn(-c2ccccc2F)n1` [Compound 187, 2-(2-fluorophenyl)-N-[1-(2-fluorophenyl)pyrazol-3-yl]acetamide], the IC50 was 520 nM. For the molecule `O=C(Nc1ccn(-c2ccccc2F)n1)C1(c2ccccc2)CC1` [Compound 188, N-[1-(2-fluorophenyl)pyrazol-3-yl]-1-phenyl-cyclopropanecarboxamide], the IC50 came out at 140 nM. Consider `O=C(Cc1ccccc1)Nc1ccn(-c2ccc(F)c(F)c2)n1` [Compound 189, N-[1-(3,4-difluorophenyl)pyrazol-3-yl]-2-phenyl-acetamide], for which the half-maximal inhibitory concentration (IC50) was determined as 230 nM. As for `O=C(Nc1ccn(-c2ccc(F)c(F)c2)n1)C1(c2ccccc2F)CC1` [Compound 190, N-[1-(3,4-difluorophenyl)pyrazol-3-yl]-1-(2-fluorophenyl)cyclopropanecarboxamide], the IC50 came out at 150 nM. The figure for `O=C(Cc1ccccc1F)Nc1ccn(-c2ccc(F)c(F)c2)n1` [Compound 191, N-[1-(3,4-difluorophenyl)pyrazol-3-yl]-2-(2-fluorophenyl)acetamide] is 240 nM; for `O=C(Nc1ccn(-c2ccc(F)c(F)c2)n1)C1(c2ccccc2)CC1` [Compound 192, N-[1-(3,4-difluorophenyl)pyrazol-3-yl]-1-phenyl-cyclopropanecarboxamide] it is 600 nM.

Take `O=C(Cc1ccccc1)Nc1ccn(-c2ccc(Cl)c(F)c2)n1` [Compound 193, N-[1-(4-chloro-3-fluoro-phenyl)pyrazol-3-yl]-2-phenyl-acetamide]: the half-inhibitory concentration (IC50) was greater than 5000 nM. To `O=C(Nc1ccn(-c2ccc(Cl)c(F)c2)n1)C1(c2ccccc2F)CC1` [Compound 194, N-[1-(4-chloro-3-fluoro-phenyl)pyrazol-3-yl]-1-(2-fluorophenyl)cyclopropanecarboxamide] belongs greater than 5000 nM.

For `O=C(Cc1ccccc1F)Nc1ccn(-c2ccc(Cl)c(F)c2)n1` [Compound 195, N-[1-(4-chloro-3-fluoro-phenyl)pyrazol-3-yl]-2-(2-fluorophenyl)acetamide], the half-inhibitory concentration (IC50) is greater than 2000 nM. To `O=C(Nc1ccn(-c2ccc(Cl)c(F)c2)n1)C1(c2ccccc2)CC1` [Compound 196, N-[1-(4-chloro-3-fluoro-phenyl)pyrazol-3-yl]-1-phenyl-cyclopropanecarboxamide] belongs greater than 5000 nM. The figure for `O=C(Cc1ccccc1)Nc1ccn(-c2ccc(F)c(Cl)c2)n1` [Compound 197, N-[1-(3-chloro-4-fluoro-phenyl)pyrazol-3-yl]-2-phenyl-acetamide] is greater than 5000 nM; for `O=C(Nc1ccn(-c2ccc(F)c(Cl)c2)n1)C1(c2ccccc2F)CC1` [Compound 198, N-[1-(3-chloro-4-fluoro-phenyl)pyrazol-3-yl]-1-(2-fluorophenyl)cyclopropanecarboxamide] it is 720 nM; for `O=C(Cc1ccccc1F)Nc1ccn(-c2ccc(F)c(Cl)c2)n1` [Compound 199, N-[1-(3-chloro-4-fluoro-phenyl)pyrazol-3-yl]-2-(2-fluorophenyl)acetamide] it is greater than 5000 nM. The figure for `O=C(Nc1ccn(-c2ccc(F)c(Cl)c2)n1)C1(c2ccccc2)CC1` [Compound 200, N-[1-(3-chloro-4-fluoro-phenyl)pyrazol-3-yl]-1-phenyl-cyclopropanecarboxamide] is 700 nM.

Consider `O=C(Nc1ccn(-c2cncc(F)c2)n1)C1(c2ccccc2)CC1` [Compound 201, N-[1-(5-fluoro-3-pyridyl)pyrazol-3-yl]-1-phenyl-cyclopropanecarboxamide], for which the IC50 stood at 46 nM. The figure for `O=C(Nc1ccn(-c2ccnnc2)n1)C1(c2ccccc2F)CC1` [Compound 202, 1-(2-fluorophenyl)-N-(1-pyridazin-4-ylpyrazol-3-yl)cyclopropanecarboxamide] is 95 nM; for `O=C(Cc1ccccc1F)Nc1ccn(-c2ccnc(F)c2)n1` [Compound 203, 2-(2-fluorophenyl)-N-[1-(2-fluoro-4-pyridyl)pyrazol-3-yl]acetamide] it is 100 nM. The figure for `O=C(Cc1ccccc1F)Nc1ccn(-c2cncc(F)c2)n1` [Compound 204, 2-(2-fluorophenyl)-N-[1-(5-fluoro-3-pyridyl)pyrazol-3-yl]acetamide] is 97 nM; for `O=C(Cc1ccccc1)Nc1ccn(-c2cncc(F)c2)n1` [Compound 205, N-[1-(5-fluoro-3-pyridyl)pyrazol-3-yl]-2-phenyl-acetamide] it is 720 nM. To `O=C(Nc1ccn(-c2ccncn2)n1)C1(c2ccccc2F)CC1` [Compound 206, 1-(2-fluorophenyl)-N-(1-pyrimidin-4-ylpyrazol-3-yl)cyclopropanecarboxamide] belongs 34 nM; to `O=C(Nc1ccn(-c2ccncn2)n1)C1(c2ccccc2)CC1` [Compound 207, 1-phenyl-N-(1-pyrimidin-4-ylpyrazol-3-yl)cyclopropanecarboxamide], 36 nM; to `O=C(Cc1ccccc1F)Nc1ccn(-c2ccncn2)n1` [Compound 208, 2-(2-fluorophenyl)-N-(1-pyrimidin-4-ylpyrazol-3-yl)acetamide], 2300 nM. Take `O=C(Cc1ccccc1)Nc1ccn(-c2ccncn2)n1` [Compound 209, 2-phenyl-N-(1-pyrimidin-4-ylpyrazol-3-yl)acetamide]: the IC50 was 2300 nM. To `O=C(Nc1ccn(-c2ccccn2)n1)C1(c2ccccc2F)CC1` [Compound 210, 1-(2-fluorophenyl)-N-[1-(2-pyridyl)pyrazol-3-yl]cyclopropanecarboxamide] belongs 170 nM. Regarding `O=C(Cc1ccccc1F)Nc1ccn(-c2ccccn2)n1` [Compound 211, 2-(2-fluorophenyl)-N-[1-(2-pyridyl)pyrazol-3-yl]acetamide], the IC50 amounted to 1700 nM. To `O=C(Nc1ccn(-c2ccccn2)n1)C1(c2ccccc2)CC1` [Compound 212, 1-phenyl-N-[1-(2-pyridyl)pyrazol-3-yl]cyclopropanecarboxamide] belongs 190 nM. Turning to `O=C(Cc1ccccc1)Nc1ccn(-c2cccnc2)n1` [Compound 213, 2-phenyl-N-(1-(pyridin-3-yl)-1H-pyrazol-3-yl)acetamide], the half-maximal inhibitory concentration (IC50) came out at 1200 nM.

Turning to `O=C(Nc1ccn(-c2cccnc2)n1)C1(c2ccccc2F)CC1` [Compound 214, 1-(2-fluorophenyl)-N-[1-(3-pyridyl)pyrazol-3-yl]cyclopropanecarboxamide], the IC50 amounted to 45 nM. To `O=C(Nc1ccn(-c2cnccn2)n1)C1(c2ccccc2F)CC1` [Compound 215, 1-(2-fluorophenyl)-N-(1-pyrazin-2-ylpyrazol-3-yl)cyclopropanecarboxamide] belongs 610 nM.

Regarding `O=C(Cc1ccccc1F)Nc1ccn(-c2cnccn2)n1` [Compound 216, 2-(2-fluorophenyl)-N-(1-pyrazin-2-ylpyrazol-3-yl)acetamide], the IC50 was greater than 5000 nM. `O=C(Nc1ccn(-c2cncs2)n1)C1(c2ccccc2F)CC1` [Compound 217, 1-(2-fluorophenyl)-N-(1-thiazol-5-ylpyrazol-3-yl)cyclopropanecarboxamide]: the IC50 was 84 nM.

As for `O=C(Cc1ccccc1)Nc1ccn(-c2cnccn2)n1` [Compound 218, 2-phenyl-N-(1-pyrazin-2-ylpyrazol-3-yl)acetamide], the half-inhibitory concentration (IC50) is greater than 2000 nM. To `O=C(Cc1cnccn1)Nc1ccn(-c2ccccc2)n1` [Compound 219, N-(1-phenylpyrazol-3-yl)-2-pyrazin-2-yl-acetamide] belongs greater than 5000 nM; to `O=C(Cc1ncccn1)Nc1ccn(-c2ccccc2)n1` [Compound 220, N-(1-phenylpyrazol-3-yl)-2-pyrimidin-2-yl-acetamide], greater than 2000 nM; to `O=C(Cc1ncccn1)Nc1ccn(-c2ccnc(F)c2)n1` [Compound 221, N-[1-(2-fluoro-4-pyridyl)pyrazol-3-yl]-2-pyrimidin-2-yl-acetamide], greater than 5000 nM. To `O=C(Nc1ccn(-c2ccnc(F)c2)n1)C1(c2cccnc2)CC1` [Compound 222, N-[1-(2-fluoro-4-pyridyl)pyrazol-3-yl]-1-(3-pyridyl)cyclopropanecarboxamide] belongs 2000 nM. To `O=C(Nc1ccn(-c2ccnc(F)c2)n1)C1(c2ccccn2)CC1` [Compound 223, N-[1-(2-fluoro-4-pyridyl)pyrazol-3-yl]-1-(2-pyridyl)cyclopropanecarboxamide] belongs 70 nM. Regarding `O=C(Nc1ccn(-c2ccccc2)n1)C1(c2cccnc2)CC1` [Compound 224, N-(1-phenylpyrazol-3-yl)-1-(3-pyridyl)cyclopropanecarboxamide], the half-maximal inhibitory concentration (IC50) came to 1400 nM.

For the molecule `O=C(Nc1ccn(-c2ccccc2)n1)C1(c2ccccn2)CC1` [Compound 225, N-(1-phenylpyrazol-3-yl)-1-(2-pyridyl)cyclopropanecarboxamide], the concentration for half-maximal inhibition (IC50) turned out to be 75 nM. To `N#Cc1ccc(C2(C(=O)Nc3ccn(-c4ccnc(F)c4)n3)CC2)cc1` [Compound 226, 1-(4-cyanophenyl)-N-[1-(2-fluoro-4-pyridyl)pyrazol-3-yl]cyclopropanecarboxamide] belongs 110 nM; to `N#Cc1ccc(C2(C(=O)Nc3ccn(-c4ccccc4)n3)CC2)cc1` [Compound 227, 1-(4-cyanophenyl)-N-(1-phenylpyrazol-3-yl)cyclopropanecarboxamide], 290 nM. Consider `Cn1ccc(-n2ccc(NC(=O)Cc3ccccc3)n2)n1` [Compound 228, N-[1-(1-methylpyrazol-3-yl)pyrazol-3-yl]-2-phenyl-acetamide], for which the IC50 is greater than 5000 nM.
